Measurements as given in a melting point compilation (Tetko et al.; mined from patent text by program, amines drawn as free bases though some values may be those of a salt).

Point of comparison: CCCc1nc(SC(F)F)c(C(=O)O)n1Cc1ccc(-c2ccccc2S(=O)(=O)NC(=O)NCc2cccs2)cc1, melting point 142 °C. Against it:
- O=c1cc(NCCCN2CCN(c3cccc4c3OCCO4)CC2)cn[nH]1 — higher, 158 to 160 °C
- Cc1ccc(S(=O)(=O)Sc2cc(C)c(NC(=O)OC(C)(C)C)cc2C(C)(C)C)cc1 — lower, 106 to 108 °C
- CC1=CC(=O)C(C(C)C)=C(CCNC(=O)C(F)(F)F)C1=O — lower, 94 to 95 °C
- CCN1CC(Cc2ccc(C(=O)O)cc2OC)c2cc(NC(=O)CC3CCCC3)ccc21 (centres undefined) — higher, 183 to 186 °C
- Cc1nnc(-c2ccc3occ(-c4ccc(C(=O)N(C)C)c(F)c4)c3c2)o1 — higher, 152 to 153 °C
- COc1c(OCc2ccccc2)cnc(CO)c1C — lower, 70 to 73 °C
- CCCC(CCC)n1c(CC)nc2c1C(=O)N(C)CN2c1ccc(Cl)cc1Cl — lower, 117 to 118 °C
- Cc1ccccc1-c1ccc(C(=O)N2Cc3ccc(C(=O)NC(C)CCc4ccccc4)n3Cc3ccccc32)cc1C (centres undefined) — higher, 152 to 154 °C
- O=C1c2ccccc2C(=O)N1Cc1cc(I)ccc1Cl — lower, 134 to 136 °C
- COC(=O)C1=Cc2cc(-c3ccc(C(F)(F)F)cc3)ccc2S(=O)(=O)CC1 — higher, 168 to 170 °C
- CS(=O)(=O)c1ccc(NC(=O)c2ccccc2Br)cc1 — higher, 168 to 169 °C
- COC(=O)C1(C)c2ccccc2-c2ccccc21 — lower, 108 to 109 °C
- COC(=O)c1cc(CO)ccc1OCc1nc(-c2ccco2)oc1C — lower, 131 to 132 °C
- CCc1nc2c(N)nc3ccccc3c2n1CC#Cc1ccc(OC)cc1 — higher, 179 to 181 °C
- CC(C)CCCc1c(-c2ccc(S(C)(=O)=O)cc2)cnn(-c2ccc(F)cc2)c1=O — lower, 112 to 115 °C
- NC(=O)Nc1ccc(OCCn2ccnc2)cc1 — higher, 199 to 201 °C
- CCCCCN(CCC12CC3CC(CC(C3)C1)C2)C(=O)NCC(Cc1ccncc1)Cc1ccncc1 — lower, 124 to 136 °C
- NCC(=O)N(C(=O)C(O)c1ccccc1)c1ccccc1 (centres undefined) — higher, 148 to 151 °C
- CN(N)C(=O)NC1c2ccccc2Oc2ccccc21 — higher, 173 to 176 °C
- CC(=O)NC(C)Cc1cc2c(cc1CC(=O)O)OCO2 (centres undefined) — higher, 195 to 197 °C
- O=C(Nc1cccc(F)c1)c1ccc(CN2C(=O)C3(COc4cc5c(cc43)CCO5)c3ccccc32)cc1 (centres undefined) — higher, > 250 °C
- CCOC(=O)c1c(C(F)(F)F)nc(C(F)(F)Cl)c(C(=O)OC)c1NN1CCCC1 — lower, 101 to 103 °C
- CNc1cc(Cl)cc(NC)c1[N+](=O)[O-] — higher, 193 °C
- CCOC(=O)c1ccc(NCc2ccc3ccc4nc(C)[nH]c(=O)c4c3c2)cc1F — higher, > 200 °C
- CC(C)c1ccc(CCNc2ncnc3c(F)cccc23)cc1 — higher, 170 to 172 °C
- CC(=O)CC(=O)Nc1cccc(NC(C)=O)c1 — lower, 107 °C
- CC(C)(C)Oc1ccc(C[C@H](NC(=O)OCc2ccccc2)C(=O)C=[N+]=[N-])cc1 — lower, 80 to 82 °C
- OC(c1ccccc1)(C1CC1)C(c1cccc(Cl)c1)n1ccnc1 (centres undefined) — lower, 140 °C
- Cc1cccc(Cn2c(NC3CCN(CCO)CC3)nc3cccnc32)n1 — higher, 152 °C
- CCC1(CO)Cc2cc(OCC(=O)O)c(Cl)c(Cl)c2C1=O (centres undefined) — higher, 155 to 157 °C
- Cc1cc(CCCCCOc2c(C)cc(-c3nc(C)no3)cc2C)on1 — lower, 54 to 56 °C
- O=C(O)C1=Cc2cccc(-c3ccccc3)c2OC1C(F)(F)F (centres undefined) — higher, 172 to 175 °C
- CCn1c(=O)n(O)c(=O)c2cc(F)c(N3CCNCC3)cc21 — higher, 206 to 208 °C
- CCN(Cc1ccc(Cl)nc1)C1=C([N+](=O)[O-])C2CCC(O2)N1C (centres undefined) — lower, 125 to 126 °C
- Cc1nonc1-n1cc(C(=O)O)c(=O)c2cc(F)c(F)cc21 — higher, 238 to 241 °C
- COc1cc2ncc(C#N)c(Nc3ccc(Sc4ccccc4)c(Cl)c3)c2cc1OC — lower, 124 to 130 °C
- COc1ccccc1NC(=O)c1ccc([N+](=O)[O-])cc1 — higher, 146 to 147 °C
- O=C(NCC1(c2ccccc2)CCCCC1)Nc1ccc(Cl)c(Cl)c1 — higher, 180 to 181 °C
